Data taken from patent US20250154144A1 (CHILDREN'S HOSPITAL MEDICAL CENTER, priority 2021, published 2025).
Like-named read-outs stand apart in the source and are kept apart here. Values belong to the compound of their own block, whether it stands above or below them.

Columns and labels:
IRAK1 = IRAK1 (Homo sapiens, UniProt P51617); experiment: RBC HotSpot Kinase Assay, IRAK1; conditions: IRAK1 IC50
IRAK4 = target: T1, IRAK4 (Homo sapiens, UniProt Q9NWZ3); experiment: RBC HotSpot Kinase Assay, IRAK4; conditions: IRAK4 IC50
T1 sequence (Q9NWZ3 1-460): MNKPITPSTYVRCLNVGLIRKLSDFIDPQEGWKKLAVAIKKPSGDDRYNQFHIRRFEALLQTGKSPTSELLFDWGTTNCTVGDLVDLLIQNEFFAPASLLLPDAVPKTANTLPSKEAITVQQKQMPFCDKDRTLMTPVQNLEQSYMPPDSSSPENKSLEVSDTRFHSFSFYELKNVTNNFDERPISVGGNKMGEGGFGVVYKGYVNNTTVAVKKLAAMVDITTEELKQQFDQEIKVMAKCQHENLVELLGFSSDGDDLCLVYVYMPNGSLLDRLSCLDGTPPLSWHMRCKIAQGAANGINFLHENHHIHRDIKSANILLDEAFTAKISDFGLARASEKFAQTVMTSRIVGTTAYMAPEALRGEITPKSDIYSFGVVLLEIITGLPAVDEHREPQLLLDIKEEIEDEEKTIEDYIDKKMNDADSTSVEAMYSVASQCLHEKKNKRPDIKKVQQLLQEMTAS

FLT3 = target: T2, FLT3 (Homo sapiens, UniProt P36888); experiment: RBC HotSpot Kinase Assay, FLT3
T2 sequence (P36888 610-943 limits assumed): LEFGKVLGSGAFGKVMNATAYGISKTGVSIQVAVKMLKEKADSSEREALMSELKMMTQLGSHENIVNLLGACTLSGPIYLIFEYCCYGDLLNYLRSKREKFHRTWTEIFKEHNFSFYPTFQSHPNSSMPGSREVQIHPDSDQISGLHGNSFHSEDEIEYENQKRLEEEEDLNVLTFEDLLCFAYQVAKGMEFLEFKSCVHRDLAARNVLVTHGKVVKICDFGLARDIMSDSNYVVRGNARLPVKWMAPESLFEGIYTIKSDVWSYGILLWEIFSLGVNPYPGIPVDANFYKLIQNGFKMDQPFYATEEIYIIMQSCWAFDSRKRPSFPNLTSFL

MOLM14 D835Y cells = experiment: cells; type: cell-based; conditions: 48 hours, Cell Titer Glo, read-out: MOLM14 D835Y IC50
MOLM14 F691L cells = experiment: cells; type: cell-based; conditions: read-out: MOLM14 F691L IC50
MOLM14(D835Y) cells = type: cell-based; conditions: MOLM14(D835Y) cells; for Excess HSA Score: 10 × 10
THP1 cells = experiment: Combination drug screening, Cell Titer Glo, 10 × 10 matrix, THP1 cells; type: cell-based; conditions: THP1 cells; for Excess HSA Score: 10 × 10
[1] = Homo sapiens, MOLM-14, 48 h, 48 hours, Cell Titer Glo
[2] = combination with (+)-BAY-1251152
[3] = combination with Eprenetapopt/APR-246
[4] = combination with Venetoclax (ABT-199)

Sequence of IRAK1 (P51617 whole entry): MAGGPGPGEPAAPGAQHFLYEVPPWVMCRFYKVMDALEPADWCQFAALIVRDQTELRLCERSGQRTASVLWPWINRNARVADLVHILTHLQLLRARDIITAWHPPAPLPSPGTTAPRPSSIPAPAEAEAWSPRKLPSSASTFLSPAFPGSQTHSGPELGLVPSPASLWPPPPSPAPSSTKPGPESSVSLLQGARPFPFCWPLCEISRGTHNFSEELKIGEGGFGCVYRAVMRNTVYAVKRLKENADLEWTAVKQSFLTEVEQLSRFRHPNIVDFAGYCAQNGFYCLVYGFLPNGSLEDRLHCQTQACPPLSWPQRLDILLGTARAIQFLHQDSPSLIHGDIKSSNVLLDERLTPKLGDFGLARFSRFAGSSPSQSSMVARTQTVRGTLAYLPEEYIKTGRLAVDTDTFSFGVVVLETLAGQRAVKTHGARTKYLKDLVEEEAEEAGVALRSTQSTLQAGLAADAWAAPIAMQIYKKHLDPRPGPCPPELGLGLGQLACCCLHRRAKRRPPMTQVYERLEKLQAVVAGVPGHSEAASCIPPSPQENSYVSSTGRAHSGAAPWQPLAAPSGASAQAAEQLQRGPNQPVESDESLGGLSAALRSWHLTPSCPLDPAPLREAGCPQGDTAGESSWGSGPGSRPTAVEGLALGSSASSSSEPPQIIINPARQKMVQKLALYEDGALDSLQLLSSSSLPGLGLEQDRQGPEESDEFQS

- IC50 (IRAK1): 31 nM
- IC50 (IRAK4): 22 nM
- IC50 (FLT3; FLT3 IC50): < 0.5 nM
- IC50 (MOLM14 D835Y cells; Homo sapiens, MOLM-14, 48 h): 137 nM
- IC50 (MOLM14 F691L cells; [1]): 770 nM
SMILES: CC(O)(c1cn2c(-c3ccnc(N[C@@H]4CCCNC4)n3)cnc2cn1)C(F)(F)F (single isomer, unassigned) [Compound 67]

- IC50 (IRAK1): 5 nM
- IC50 (IRAK4): < 0.5 nM
- IC50 (FLT3; read-out: FLT3 IC50): < 0.5 nM
- IC50 (MOLM14 D835Y cells): 69 nM
- IC50 (MOLM14 F691L cells; 48 hours, Cell Titer Glo): 686 nM
SMILES: CC(O)(c1cn2c(-c3ccnc(N[C@H]4CNC[C@@H]4F)n3)cnc2cn1)C(F)(F)F (single isomer, unassigned) [Compound 71]

- IC50 (IRAK1): 91 nM
- IC50 (IRAK4): 37 nM
- IC50 (FLT3; FLT3 IC50): 8 nM
- IC50 (MOLM14 D835Y cells): 612 nM
- IC50 (MOLM14 F691L cells; 48 hours, Cell Titer Glo): 969 nM
SMILES: CC(O)(c1cn2c(-c3cncc(N[C@@H]4CCCNC4)n3)cnc2cn1)C(F)(F)F (single isomer, unassigned) [Compound 73]

- IC50 (IRAK1): 29 nM
- IC50 (IRAK4): 4 nM
- IC50 (FLT3; FLT3 IC50): 3 nM
- IC50 (MOLM14 D835Y cells): 217 nM
- IC50 (MOLM14 F691L cells; 48 hours, Cell Titer Glo): 344 nM
SMILES: CC(O)(c1cn2c(-c3cncc(N[C@@H]4CCCNC4)n3)cnc2cn1)C(F)(F)F (single isomer, unassigned) [Compound 74]

- IC50 (IRAK1): 262 nM
- IC50 (IRAK4): 40 nM
- IC50 (FLT3; FLT3 IC50): 9 nM
- IC50 (MOLM14 D835Y cells; Homo sapiens, MOLM-14, 48 h): 1090 nM
- IC50 (MOLM14 F691L cells; [1]): 1720 nM
SMILES: CC(O)(c1cn2c(-c3cncc(N[C@H]4CNC[C@@H]4F)n3)cnc2cn1)C(F)(F)F (single isomer, unassigned) [Compound 75]

- IC50 (IRAK1): 89 nM
- IC50 (IRAK4): 4 nM
- IC50 (FLT3; FLT3 IC50): 7 nM
- IC50 (MOLM14 D835Y cells): 686 nM
- IC50 (MOLM14 F691L cells; 48 hours, Cell Titer Glo): 1930 nM
SMILES: CC(O)(c1cn2c(-c3cncc(N[C@H]4CNC[C@@H]4F)n3)cnc2cn1)C(F)(F)F (single isomer, unassigned) [Compound 77]

- IC50 (IRAK1): 7 nM
- IC50 (IRAK4): < 0.5 nM
- IC50 (FLT3; read-out: FLT3 IC50): < 0.5 nM
- IC50 (MOLM14 D835Y cells): 193 nM
- IC50 (MOLM14 F691L cells; 48 hours, Cell Titer Glo): 386 nM
SMILES: CC(O)(c1cn2c(-c3cncc(N[C@H]4CNCC[C@@H]4F)n3)cnc2cn1)C(F)(F)F (single isomer, unassigned) [Compound 78]

- IC50 (IRAK1): 111 nM
- IC50 (IRAK4): 2 nM
- IC50 (FLT3; FLT3 IC50): < 0.5 nM
- IC50 (MOLM14 D835Y cells; Homo sapiens, MOLM-14, 48 h): 37 nM
- IC50 (MOLM14 F691L cells; [1]): 73 nM
SMILES: CC(C)Oc1ccn2c(-c3cncc(N[C@@H]4CCCNC4)n3)cnc2c1 [Compound 1, 6-(7-isopropoxyimidazo[1,2-a]pyridin-3-yl)-N-[(3R)-3-piperidyl]pyrazin-2-amine]

- IC50 (IRAK1): 29 nM
- IC50 (IRAK4): 2 nM
- IC50 (FLT3; FLT3 IC50): < 0.5 nM
- IC50 (MOLM14 D835Y cells; Homo sapiens, MOLM-14, 48 h): 77 nM
- IC50 (MOLM14 F691L cells; [1]): 244 nM
SMILES: COc1ccn2c(-c3cncc(N[C@H]4CNC[C@@H]4F)n3)cnc2c1 [Compound 4, N-((3S,4S)-4-fluoropyrrolidin-3-yl)-6-(7-methoxyimidazo[1,2-a]pyridin-3-yl)pyrazin-2-amine]

- IC50 (IRAK1): 85 nM
- IC50 (IRAK4): 4 nM
- IC50 (FLT3; FLT3 IC50): < 0.5 nM
- IC50 (MOLM14 D835Y cells; Homo sapiens, MOLM-14, 48 h): 69 nM
- IC50 (MOLM14 F691L cells; [1]): 217 nM
SMILES: FC(F)COc1ccn2c(-c3cncc(N[C@H]4CNC[C@@H]4F)n3)cnc2c1 [Compound 7]

- IC50 (IRAK1): 42 nM
- IC50 (IRAK4): < 0.5 nM
- IC50 (FLT3; FLT3 IC50): < 0.5 nM
- IC50 (MOLM14 D835Y cells; Homo sapiens, MOLM-14, 48 h): 14 nM
- IC50 (MOLM14 F691L cells; [1]): 39 nM
SMILES: FC(F)COc1ccn2c(-c3cncc(N[C@@H]4CCCNC4)n3)cnc2c1 [Compound 8, (R)-6-(7-(2,2-difluoroethoxy)imidazo[1,2-a]pyridin-3-yl)-N-(piperidin-3-yl)pyrazin-2-amine]

- IC50 (IRAK1): 24 nM
- IC50 (IRAK4): 9 nM
- IC50 (FLT3; FLT3 IC50): < 0.5 nM
- IC50 (MOLM14 D835Y cells; Homo sapiens, MOLM-14, 48 h): 244 nM
- IC50 (MOLM14 F691L cells; [1]): 770 nM
SMILES: F[C@H]1CNC[C@@H]1Nc1cncc(-c2cnc3cc(OC4CC4)ccn23)n1 [Compound 10, 6-(7-cyclopropoxyimidazo[1,2-a]pyridin-3-yl)-N-((3S,4S)-4-fluoropyrrolidin-3-yl)pyrazin-2-amine]

- IC50 (IRAK1): 85 nM
- IC50 (IRAK4): 5 nM
- IC50 (FLT3; FLT3 IC50): < 0.5 nM
- IC50 (MOLM14 D835Y cells; Homo sapiens, MOLM-14, 48 h): 43 nM
- IC50 (MOLM14 F691L cells; [1]): 109 nM
SMILES: c1cn2c(-c3cncc(N[C@@H]4CCCNC4)n3)cnc2cc1OC1CC1 [Compound 11, (R)-6-(7-cyclopropoxyimidazo[1,2-a]pyridin-3-yl)-N-(piperidin-3-yl)pyrazin-2-amine]

- IC50 (IRAK1): 86 nM
- IC50 (IRAK4): 21 nM
- IC50 (FLT3; FLT3 IC50): 1 nM
- IC50 (MOLM14 D835Y cells; Homo sapiens, MOLM-14, 48 h): 307 nM
- IC50 (MOLM14 F691L cells; [1]): 864 nM
SMILES: FC(F)Oc1ccn2c(-c3cncc(N[C@H]4CNC[C@@H]4F)n3)cnc2c1 [Compound 13, 6-(7-(difluoromethoxy)imidazo [1,2-a]pyridin-3-yl)-N-((3S,4S)-4-fluoropyrrolidin-3-yl)pyrazin-2-amine]

- IC50 (IRAK1): 447 nM
- IC50 (IRAK4): 12 nM
- IC50 (FLT3; FLT3 IC50): 0.8 nM
- IC50 (MOLM14 D835Y cells; Homo sapiens, MOLM-14, 48 h): 86 nM
- IC50 (MOLM14 F691L cells; [1]): 193 nM
SMILES: FC(F)Oc1ccn2c(-c3cncc(N[C@@H]4CCCNC4)n3)cnc2c1 [Compound 14, (R)-6-(7-(difluoromethoxy)imidazo [1,2-a]pyridin-3-yl)-N-(piperidin-3-yl)pyrazin-2-amine]

- IC50 (IRAK1): 3 nM
- IC50 (IRAK4): 0.8 nM
- IC50 (FLT3; FLT3 IC50): < 0.5 nM
- IC50 (MOLM14 D835Y cells; Homo sapiens, MOLM-14, 48 h): 109 nM
- IC50 (MOLM14 F691L cells; [1]): 193 nM
SMILES: COc1cc2ncc(-c3cncc(N[C@H]4CNC[C@@H]4F)n3)n2cc1C(C)(C)O [Compound 19, 2-(3-(6-(((3S,4S)-4-fluoropyrrolidin-3-yl)amino)pyrazin-2-yl)-7-methoxyimidazo[1,2-a]pyridin-6-yl)propan-2-ol]

SMILES: COc1ccn2c(-c3ccnc(N[C@H]4CNCC[C@@H]4F)n3)cnc2c1 [Compound 30, N-((3S,4S)-4-fluoropiperidin-3-yl)-4-(7-methoxyimidazo[1,2-a]pyridin-3-yl)pyrimidin-2-amine]
- Excess HSA Score (MOLM14(D835Y) cells; [2]): −230
- Excess HSA Score (MOLM14(D835Y) cells; combination with AMG-232): −524.3
- Excess HSA Score (MOLM14(D835Y) cells; combination with AZD-5363): −738.1
- Excess HSA Score (MOLM14(D835Y) cells; [3]): −284.6
- Excess HSA Score (MOLM14(D835Y) cells; combination with Ivosidenib): −74.07
- Excess HSA Score (MOLM14(D835Y) cells; combination with Lenalidomide): 299.3
- Excess HSA Score (MOLM14(D835Y) cells; combination with Palbociclib): −448.3
- Excess HSA Score (MOLM14(D835Y) cells; combination with Prednisolone): 3.447
- Excess HSA Score (MOLM14(D835Y) cells; combination with SNDX-5613): −303.5
- Excess HSA Score (MOLM14(D835Y) cells; combination with TNO-155): −922.2
- Excess HSA Score (MOLM14(D835Y) cells; combination with Trametinib): −313.7
- Excess HSA Score (MOLM14(D835Y) cells; combination with Ulixertinib): 14.83
- Excess HSA Score (MOLM14(D835Y) cells; [4]): −1291
- Comments (MOLM14(D835Y) cells; combination with Prednisolone): Antagonistic
- Comments (MOLM14(D835Y) cells; [4]): Synergistic
- Excess HSA Score (THP1 cells; [2]): −655.1
- Excess HSA Score (THP1 cells; combination with AMG-232): −76.43
- Excess HSA Score (THP1 cells; combination with AZD-5363): −13.97
- Excess HSA Score (THP1 cells; [3]): 389.5
- Excess HSA Score (THP1 cells; combination with Ivosidenib): 59.9
- Excess HSA Score (THP1 cells; combination with Lenalidomide): −90.11
- Excess HSA Score (THP1 cells; combination with Palbociclib): −678.3
- Excess HSA Score (THP1 cells; combination with Prednisolone): 188.1
- Excess HSA Score (THP1 cells; combination with SNDX-5613): 1.322
- Excess HSA Score (THP1 cells; combination with TNO-155): 591.3
- Excess HSA Score (THP1 cells; combination with Trametinib): −203.6
- Excess HSA Score (THP1 cells; combination with Ulixertinib): −362.3
- Excess HSA Score (THP1 cells; [4]): −1632
- Comments (THP1 cells; combination with Ivosidenib): Antagonistic
- Comments (THP1 cells; combination with SNDX-5613): Additive
- Comments (THP1 cells; [4]): Synergistic
- IC50 (MOLM14 F691L cells; Homo sapiens, MOLM-14, 48 h): 61 nM
